In PubChem BioAssay (NCI):
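Cultured in 96-well plates, cells were exposed to test compound for 48 hours across five concentrations. Here, GI50 denotes the concentration required for 50% inhibition of growth. At the TGI there is no net growth.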

Experiments:
Test in all cases: NCI tumour cell line growth inhibition, 48 h
[1] = system: K-562 leukemia
[2] = system: HCT-116 colon
[3] = system: MOLT-4 leukemia
[4] = system: HCC-2998 colon
[5] = system: NCI-H460 lung
[6] = system: MDA-MB-231 breast
[7] = system: MCF7 breast
[8] = system: ACHN renal
[9] = system: NCI-H23 lung
[10] = system: HS 578T breast
[11] = system: EKVX NSCLC
[12] = system: OVCAR-3 ovarian
[13] = system: HOP-92 NSCLC
[14] = system: SF-268 CNS
[15] = system: OVCAR-4 ovarian
[16] = system: A549 NSCLC
[17] = system: SK-MEL-5 melanoma
[18] = system: UACC-62 melanoma
[19] = system: HT29 colon
[20] = system: SNB-75 CNS
[21] = system: SK-OV-3 ovarian
[22] = system: RPMI-8226 leukemia
[23] = system: T-47D breast
[24] = system: 786-0 renal
[25] = system: M14 melanoma
[26] = system: NCI/ADR-RES ovarian
[27] = system: OVCAR-5 ovarian
[28] = system: TK-10 renal
[29] = system: A498 renal
[30] = system: HOP-62 NSCLC
[31] = system: OVCAR-8 ovarian
[32] = system: MDA-MB-435
[33] = system: U251 CNS
[34] = system: SK-MEL-2 melanoma
[35] = system: SNB-19 CNS
[36] = system: BT-549 breast
[37] = system: HL-60(TB) leukemia
[38] = system: IGROV1 ovarian
[39] = system: COLO 205 colon
[40] = system: NCI-H522 lung
[41] = system: PC-3 prostate
[42] = system: SN12C renal
[43] = system: UO-31 renal
[44] = system: SF-295 CNS
[45] = system: LOX IMVI melanoma
[46] = system: SW-620 colon
[47] = system: SF-539 CNS
[48] = system: MALME-3M melanoma
[49] = system: KM12 colon
[50] = system: UACC-257 melanoma
[51] = system: HCT-15 colon
[52] = system: RXF 393 renal
[53] = system: SR leukemia
[54] = system: SK-MEL-28 melanoma
[55] = system: NCI-H226 lung
[56] = system: CCRF-CEM leukemia

CN1CCN(c2nc(NCCNc3ccnc4cc(Cl)ccc34)c3ccccc3n2)CC1
GI50 [1]: 0.721 µM | TGI [1]: 3.82 µM | GI50 [2]: 0.448 µM | TGI [2]: 7.62 µM | GI50 [3]: 1.63 µM | TGI [3]: 6.36 µM | GI50 [4]: 3.11 µM | TGI [4]: 10.4 µM | GI50 [5]: 1.7 µM | TGI [5]: 6.49 µM | GI50 [6]: 1.37 µM | TGI [6]: 3.14 µM | GI50 [7]: 1 µM | TGI [7]: 13.9 µM | GI50 [8]: 2.85 µM | TGI [8]: 8.27 µM | GI50 [9]: 3.64 µM | TGI [9]: 15.2 µM | GI50 [10]: 2.74 µM | TGI [10]: 9.58 µM | GI50 [11]: 3.86 µM | TGI [11]: 17.3 µM | GI50 [12]: 2.21 µM | TGI [12]: 7.44 µM | GI50 [13]: 1.13 µM | TGI [13]: 2.6 µM | GI50 [14]: 2.72 µM | TGI [14]: 13.1 µM | GI50 [15]: 2.15 µM | TGI [15]: 6.26 µM | GI50 [16]: 1.44 µM | TGI [16]: 5.97 µM | GI50 [17]: 1.72 µM | TGI [17]: 3.12 µM | GI50 [18]: 1.82 µM | TGI [18]: 3.39 µM | GI50 [19]: 0.699 µM | TGI [19]: 4.18 µM | GI50 [20]: 1.84 µM | TGI [20]: 4.96 µM | GI50 [21]: 3.18 µM | TGI [21]: 11.7 µM | GI50 [22]: 1.71 µM | TGI [22]: 4.26 µM | GI50 [23]: 1.94 µM | TGI [23]: 4.79 µM | GI50 [24]: 2.33 µM | TGI [24]: 10 µM | GI50 [25]: 1.83 µM | TGI [25]: 3.59 µM | GI50 [26]: 16 µM | TGI [26]: 37 µM | GI50 [27]: 3.35 µM | TGI [27]: 13.3 µM | GI50 [28]: 2.72 µM | TGI [28]: 7.93 µM | GI50 [29]: 12.3 µM | TGI [29]: 25.5 µM | GI50 [30]: 2.73 µM | TGI [30]: 14.2 µM | GI50 [31]: 2.12 µM | TGI [31]: 5.75 µM | GI50 [32]: 1.85 µM | TGI [32]: 3.61 µM | GI50 [33]: 2.3 µM | TGI [33]: 10.1 µM | GI50 [34]: 1.98 µM | TGI [34]: 4.19 µM | GI50 [35]: 3.34 µM | TGI [35]: 15.2 µM | GI50 [36]: 3.49 µM | TGI [36]: 12.8 µM | GI50 [37]: 1.74 µM | TGI [37]: 3.5 µM | GI50 [38]: 2.51 µM | TGI [38]: 7.94 µM | GI50 [39]: 0.974 µM | TGI [39]: 2.33 µM | GI50 [40]: 1.64 µM | TGI [40]: 3.8 µM | GI50 [41]: 2.07 µM | TGI [41]: 14.3 µM | GI50 [42]: 2.03 µM | TGI [42]: 5.6 µM | GI50 [43]: 1.55 µM | TGI [43]: 3.53 µM | GI50 [44]: 1.79 µM | TGI [44]: 3.45 µM | GI50 [45]: 1.63 µM | TGI [45]: 3.34 µM | GI50 [46]: 0.391 µM | TGI [46]: 13.3 µM | GI50 [47]: 1.77 µM | TGI [47]: 3.34 µM | GI50 [48]: 2 µM | TGI [48]: 3.76 µM | GI50 [49]: 2.43 µM | TGI [49]: 12.1 µM | GI50 [50]: 1.71 µM | TGI [50]: 3.18 µM | GI50 [51]: 3.02 µM | TGI [51]: 10.8 µM | GI50 [52]: 1.46 µM | TGI [52]: 3.46 µM | GI50 [53]: 1.3 µM | TGI [53]: 3.67 µM | GI50 [54]: 1.83 µM | TGI [54]: 3.39 µM | GI50 [55]: 10.6 µM | TGI [55]: 28.7 µM | GI50 [56]: 0.527 µM | TGI [56]: 4.84 µM
